How the values were obtained:
dopamine D2s receptor = dopamine D2s receptor (Homo sapiens (Human), UniProt P14416); test: D2 antagonist GTPγS functional assay; type: biochemical; details: antagonist mode
Description: In vitro experimental assays can generally be carried out as described herein. Briefly, CHO-K1 cells stably transfected with the dopamine D2s receptor can be used in the experiments and maintained in Ham's F12 culture medium supplemented with 2 mM L-glutamine, 10% FBS, and 500 μg/ml Hygromycin.
GTPgS assay can be performed substantially as described by Lazareno, Methods in Molecular Biology, 1999, 106, 231-245. Antagonist activity of compounds can be determined by the ability of test compounds to block dopamine-stimulated [^35S]-GTPγS binding to cell membranes from D2s stably-transfected CHO cells.

[1] = system: D-Amphetamine-induced Hyperlocomotor Activity; test: D-Amphetamine-induced hyperlocomotor activity (LMA) in habituated rat model; type: in vivo, male Long Evans rats; details: 30 mg/kg and 60 mg/kg (sc)
Description: Studies in vivo can be used to determine the antipsychotic effect and are generally carried out as follows. Briefly, D-Amphetamine-induced Hyperlocomotor Activity (LMA) in a Habituated Rat Model can be assessed in male Long Evans rats using a paradigm that includes a habituation phase followed by administration of 1 mg/kg D-amphetamine. Animals can be allowed to acclimatize to the testing room for 1 hour before being weighed and placed into activity chambers. Thirty minutes after LMA measurement is begun, animals can be briefly removed, dosed via the sub-cutaneous route (s.c.) with vehicle or test drug at different doses and returned to the chambers. After a further 30 minutes, animals can again be removed and dosed with vehicle or D-amphetamine at 1 mg/kg (s.c.). After returning the animals to the activity chambers, LMA can be assessed for a further 60 minutes. Haloperidol (0.1 mg/kg dissolved in H2O) can be administered 15 minutes prior to D-amphetamine via the s.c. route. Statistical analysis can be made of total distance traveled after D-amphetamine administration using ANOVA and Tukey's post hoc analysis where appropriate. All values can be expressed as Mean and SD.

[2] = system: Conditioned Avoidance Responding; test: Conditioned avoidance responding (CAR) assay; type: in vivo, Male Long-Evans rats; details: 30 mg/kg and 60 mg/kg (sc), rat
Description: Male Long-Evans rats can be trained to traverse to the opposite side of a standard shuttle cage following presentation of an auditory and visual stimulus to avoid delivery of electric shock to the floor of the cage. Daily sessions can consist of up to 80 trials. If a shock is delivered, animals have the opportunity to escape the shock by traversing to the opposite side of the cage. Drug can be administered (via s.c. or p.o. route) 60 minutes prior to testing and the percentage of trials in which shock is avoided and escaped can be recorded.

H1 receptor = H1 receptor (Homo sapiens (Human), UniProt P35367); test: H1 receptor binding; design: species or system Hu; details: one average result
From the text: The H1 receptor binding method can be carried out in accordance with De Backer et al., Biochem. Biophys. Res. Commun., 1993, 197(3), 1601.

Sequence of dopamine D2s receptor (P14416 other isoform, or with tags, fused parts or gaps): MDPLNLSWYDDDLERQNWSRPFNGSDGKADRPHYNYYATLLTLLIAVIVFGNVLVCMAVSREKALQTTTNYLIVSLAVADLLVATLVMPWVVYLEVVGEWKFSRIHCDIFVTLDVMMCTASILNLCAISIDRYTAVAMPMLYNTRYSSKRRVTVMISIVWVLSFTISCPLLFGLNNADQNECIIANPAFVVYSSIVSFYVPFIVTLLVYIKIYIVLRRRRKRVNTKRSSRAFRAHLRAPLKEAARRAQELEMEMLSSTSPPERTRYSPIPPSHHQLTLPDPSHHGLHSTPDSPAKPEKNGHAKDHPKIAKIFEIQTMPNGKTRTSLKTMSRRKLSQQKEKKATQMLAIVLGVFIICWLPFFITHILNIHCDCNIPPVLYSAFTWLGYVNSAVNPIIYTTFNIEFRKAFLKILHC
Sequence of H1 receptor (P35367 whole entry): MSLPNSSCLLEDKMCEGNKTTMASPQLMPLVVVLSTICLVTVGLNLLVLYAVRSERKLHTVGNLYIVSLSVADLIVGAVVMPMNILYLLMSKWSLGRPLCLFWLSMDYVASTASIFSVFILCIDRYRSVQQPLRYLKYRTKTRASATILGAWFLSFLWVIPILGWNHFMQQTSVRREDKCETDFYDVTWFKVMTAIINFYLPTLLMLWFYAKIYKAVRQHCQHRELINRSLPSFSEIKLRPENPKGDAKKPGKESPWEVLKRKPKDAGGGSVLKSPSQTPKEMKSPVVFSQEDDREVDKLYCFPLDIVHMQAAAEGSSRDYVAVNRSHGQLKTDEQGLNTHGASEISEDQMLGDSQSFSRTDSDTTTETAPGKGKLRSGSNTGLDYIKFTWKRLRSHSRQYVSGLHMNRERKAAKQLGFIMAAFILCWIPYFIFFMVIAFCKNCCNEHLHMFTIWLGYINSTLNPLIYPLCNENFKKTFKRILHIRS

D2 Ant GTPγS Top Effect (dopamine D2s receptor)	Ki (H1 receptor)	Compound	activity in D-amphetamine-induced hyperlocomotor activity [1]	activity in conditioned avoidance responding [2]
100	–	CN1CCN(C2=Nc3ccccc3Sc3ccc(Cl)cc32)CC1 [2-Chloro-11-(4-methyl-piperazin-1-yl)-dibenzo[b,f][1,4]thiazepine]	–	–
100	–	CN1CCN(C2=Nc3ccccc3Sc3ccc(F)cc32)CC1 [2-Fluoro-11-(4-methyl-piperazin-1-yl)-dibenzo[b,f][1,4]thiazepine]	–	–
97	~7.1 nM	Fc1ccc2c(c1)C(N1CCNCC1)=Nc1ccccc1S2 [Example 1, 2-fluoro-11-(piperazin-1-yl)dibenzo[b,f][1,4]thiazepine]	showed activity	showed activity
100	–	Clc1ccc2c(c1)C(N1CCNCC1)=Nc1ccccc1S2 [2-Chloro-11-piperazin-1-yl-dibenzo[b,f][1,4]thiazepine]	–	–
89	–	c1ccc2c(c1)N=C(N1CCNCC1)c1ccccc1S2 [11-Piperazin-1-yl-dibenzo[b,f][1,4]thiazepine]	–	–

From patent publication US8653257B2, “Dibenzothiazepine derivatives and uses thereof—424” (Astrazeneca AB, priority 2008, dated 2014)
